Consider 1 molecule from patent US8686115B2, “Compositions and methods for quantitatively monitoring lipids” (The Board of Trustees of the University of Illinois, priority 2009, dated 2014).

Where a chain is given by its changes, count along the chain named.

Experiment [1] addresses T1, DAN-eENTH (epsin 1 ENTH domain variant M10C/C96A/S4W, SEQ ID NO: 2, DAN labeled) mutant L6A/R7A/R8A (Homo sapiens, UniProt Q9Y6I3, C96A/L6A/M10C/R7A/R8A/S4W).
T1 construct: The Epsin1 ENTH domain (1-158 amino acids) was subcloned; GST (C, cleaved yes); made in house; host or cells: E. coli BL21 RIL codon plus
T1 sequence (Q9Y6I3 with tags, fused parts or gaps C96A): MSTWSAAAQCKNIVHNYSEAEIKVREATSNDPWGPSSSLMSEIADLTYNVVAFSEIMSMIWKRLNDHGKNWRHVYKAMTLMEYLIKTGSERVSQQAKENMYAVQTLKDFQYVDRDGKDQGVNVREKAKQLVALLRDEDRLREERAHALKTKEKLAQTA
In words: SPR binding of DAN-eENTH-L6A/R7A/R8A to phosphoinositide-containing LUVs. The settings on record: see Table 1. (In general: Surface plasmon resonance follows binding to a sensor surface in real time, without labels.)

Experiment [2] deals with T2, DAN-eENTH: epsin 1 ENTH domain variant M10C/C96A/S4W, SEQ ID NO: 2, labeled with DAN at C10 (Homo sapiens, UniProt Q9Y6I3, C96A/M10C/S4W).
T2 construct: The Epsin1 ENTH domain (1-158 amino acids) was subcloned; GST (C, cleaved yes); made in house; host or cells: E. coli BL21 RIL codon plus
T2 sequence (Q9Y6I3 1-158 S4W/M10C/C96A): T1 sequence (Q9Y6I3 with tags, fused parts or gaps C96A) with A6L, A7R, A8R
In words: Ratiometric (FB/FG) two-photon microscopy of DAN-eENTH binding to PtdIns(4,5)P2 in GUVs. The settings on record: FB/FG versus [PtdIns(4,5)P2]; POPC/POPS/PtdIns(4,5)P2 (80-x:20:x) GUVs; 37° C.; read-out: Kd for PtdIns(4,5)P2 (FB/FG ratiometric analysis). The protocol:
The background correction for FB/FG values was unnecessary because FB=0 in the absence of PtdIns(4,5)P2. […] The theoretic curve was then constructed using these parameters.
To calibrate the fluorescence microscope and the DAN-eENTH sensor for cellular PtdIns(4,5)P2 quantification, we then determined by photon counting F values in the blue channel (FB; observed with a 436±10 band pass filter) and the green channel (FG; observed with a 525±25 band pass filter) when DAN-eENTH was added to the solution of giant unilamellar vesicles (GUV) with the composition of POPC/POPS/PtdIns(4,5)P2 (80-x:20:x with x=0-3). […] The resulting FB versus the surface concentration of PtdIns(4,5)P2 ([PtdIns(4,5)P2]s; see Methods for calculation) (FIG. 2C) or (FB/FG) versus [PtdIns(4,5)P2]s (FIG. 2d) calibration curve was used for ensuing PtdIns(4,5)P2 quantification in GUV and in mammalian cells. With respect to FIG. 5, the bar indicates 10 μm and the radius of this GUV is measured as […]. […]
In vitro calibration of our DAN-eENTH sensor was performed using GUVs composed of POPC/POPS/PtdIns(4,5)P2 (80-x:20:x) (x=0-3 mol %). […] These GUV were mixed with DAN-eENTH in the concentration range of 0-500 nM and spatiotemporally resolved fluorescence measurements were carried out at 37° C. using the custom-built multi-photon, multi-channel microscope that was described previously 13. […]

`CCCCCCCCCCCCCCCC(=O)OC[C@H](COP(=O)(O)O[C@@H]1[C@H](O)[C@H](O)[C@@H](OP(=O)(O)O)[C@H](OP(=O)(O)O)[C@H]1O)OC(=O)CCCCCCCCCCCCCCC` [PtdIns(4,5)P2, phosphatidylinositol-4,5-bisphosphate]: the “PtdIns(4,5)P2 affinity” value in experiment [1] was “devoid of PtdIns(4,5)P2 affinity”. Also, the Kd in experiment [2] worked out at 44 ± 6 nM.
